Results reported in paper PMC6934184, “Selective DNA-PKcs inhibition extends the therapeutic index of localized radiotherapy and chemotherapy” (The Journal of Clinical Investigation, 2019).

Target: T1, ZAK (Homo sapiens, UniProt Q9NYL2)
T1 construct: purchased Thermo Fisher Scientific (Life Technologies) SelectScreen
Assay: SelectScreen LanthaScreen
Type: binding
Conditions: read-out: % displacement
In short: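 NU5455 was profiled across the SelectScreen Broad panel of kinase activity and binding assays. Z'LYTE reactions such as CSF1R ran at apparent Km ATP, while the Adapta CAMK1 assay used ATP listed as 10. Values are given as percent.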

T1 sequence (Q9NYL2 whole entry): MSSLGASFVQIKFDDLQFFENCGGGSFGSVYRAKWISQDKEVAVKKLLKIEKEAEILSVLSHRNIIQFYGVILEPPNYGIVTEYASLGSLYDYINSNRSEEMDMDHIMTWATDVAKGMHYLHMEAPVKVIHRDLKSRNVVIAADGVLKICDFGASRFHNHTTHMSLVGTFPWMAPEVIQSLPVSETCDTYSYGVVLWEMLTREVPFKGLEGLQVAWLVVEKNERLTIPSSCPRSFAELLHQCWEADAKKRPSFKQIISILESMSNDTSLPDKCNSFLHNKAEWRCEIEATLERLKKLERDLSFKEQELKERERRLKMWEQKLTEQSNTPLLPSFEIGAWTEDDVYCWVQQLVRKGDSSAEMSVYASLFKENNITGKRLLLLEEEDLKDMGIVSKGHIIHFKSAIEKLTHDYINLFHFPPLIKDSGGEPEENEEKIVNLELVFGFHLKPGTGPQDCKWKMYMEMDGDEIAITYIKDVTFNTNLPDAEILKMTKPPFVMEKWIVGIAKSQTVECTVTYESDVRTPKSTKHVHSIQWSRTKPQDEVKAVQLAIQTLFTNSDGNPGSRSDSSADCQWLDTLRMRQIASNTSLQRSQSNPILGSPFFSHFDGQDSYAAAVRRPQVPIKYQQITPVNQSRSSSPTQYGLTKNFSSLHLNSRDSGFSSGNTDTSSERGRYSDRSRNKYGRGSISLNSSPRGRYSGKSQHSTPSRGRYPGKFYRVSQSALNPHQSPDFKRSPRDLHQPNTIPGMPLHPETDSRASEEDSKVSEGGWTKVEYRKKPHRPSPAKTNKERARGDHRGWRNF

Work on `CN(C(=O)CN1CCOCC1)c1ccc2sc3c(-c4cccc5c(=O)cc(N6CC7CCC(C6)O7)oc45)cccc3c2c1` [NU5455] yielded an inhibition at 1 µM of -0.7%.
